US11332451B2, “RIP1 inhibitory compounds and methods for making and using the same” (priority 2018, dated 2022)

Test system: TNF-alpha induced hypothermia
Assay: acute hypothermia mouse model (TNF-alpha/zVAD-FMK induced hypothermia)
Assay type: in vivo, mice
Conditions: dose of 5 mg/kg, oral gavage
Description: In this example, an acute hypothermia mouse model assay was used to evaluate the ability of compounds disclosed herein to inhibit TNF-alpha induced hypothermia.
Female C57BL/6 mice are randomly grouped and weighed on Day −1. On the day of the study (Day 0), mice are administered vehicle or test article by oral gavage. Fifteen minutes after oral administration of test agents, each mouse is administered an intraperitoneal (IP) injection of solution containing recombinant human tumor necrosis factor alpha (TNF-a, 25.0 μg) and zVAD-FMK (200 μg). Body temperature is measured at 0 hours (before IP injections) and every hour via rectal probe temperature measuring device. Three (3) hours after IP injections of TNF-α and zVAD/FMK, mice are euthanized by CO2 asphyxiation and blood is collected via cardiac puncture. Serum and plasma are harvested for determination of cytokine and compound levels, respectively. Separate groups of mice (satellite mice) are included for the determination of compound levels in plasma at the time of administration of TNFa/zVAD-FMK.
(S)-5-benzyl-N-(5-methyl-4-oxo-2,3,4,5-tetrahydrobenzo[b][1,4]oxazepin-3-yl)-4H-1,2,4-triazole-3-carboxamide (WO 2014/125444), having a structure as illustrated below, was used as a comparative compound and was examined using a similar protocol as described by WO 2014/125444.

With `CN1C(=O)[C@@H](NC(=O)c2n[nH]c(Cc3ccccc3)n2)COc2ccc(C#CC(C)(C)O)cc21` [Compound I-30, (S)-5-benzyl-N-(7-(3-hydroxy-3-methylbut-1-yn-1-yl)-5-methyl-4-oxo-2,3,4,5-tetrahydrobenzo[b][1,4]oxazepin-3-yl)-1H-1,2,4-triazole-3-carboxamide] the “inhibition of TNF-alpha induced hypothermia” value was “greater than 85%”.
